Here are results for three molecules from ChEMBL document CHEMBL1146467, “A new phloroglucinol derivative from the brown alga Eisenia bicyclis: potential for the effective treatment of diabetic complications” (J Nat Prod, 2004).

Data set [1] is described as follows: Inhibition of advanced glycation end product formation assessed as CML level at 1 mM after 7 days in 0.1 M phosphate buffer at pH 7.4 by ELISA relative to control. The data set is classed as physicochemical. The settings on record: pH 7.4, 168 h, 1000 µM. In general terms: In an ELISA, binding on a coated surface is turned into a signal by an enzyme label.
Data set [2] can be described thus: Inhibition of alpha-amylase at 1 mM after 15 mins by dinitrosalicylic acid method relative to control.

As to `Oc1cc(O)cc(Oc2c(O)cc(O)c3c2Oc2c(O)cc(O)cc2O3)c1` [ECKOL], the “inhibition (INH)” value in data set [1] worked out at 96.2%. Moreover, the inhibition in data set [2] came out at 87.5%. Take `Oc1cc(O)cc(Oc2c(O)cc(O)c3c2Oc2c(O)cc(Oc4c(O)cc(Oc5c(O)cc(O)c6c5Oc5c(O)cc(O)cc5O6)cc4O)cc2O3)c1` [DIECKOL]: the “inhibition (INH)” value in data set [1] is given as 86.7%. In addition, the inhibition in data set [2] amounted to 97.5%. For `N=C(N)NN` [PIMAGEDINE], the “inhibition (INH)” value in data set [1] is reported as 76%.

Usually inhibition stands for the percentage by which the read-out fell short of the control.
